These results are taken from publication PMC9853918 (Journal of chemical information and modeling, 2022).

A word on the IC50: it is the point on the concentration scale where inhibition reaches its midpoint. A higher IC50 goes with lower potency.

The structures appear in SMILES notation.

Assay [1] relates to H11G11-BG βGUS. The assay is described as follows: βGUS. The assay is classed as biochemical, uncultured bacterium. The settings on record: for efficacy: 0.5 nM GUS, 100 μM 4MUG, 1 hr at room temperature, negative = inhibition; for curve class (CC): dose-response curve class.
The target of assay [2] is (UniProt D5GU71). The assay is described as follows: βGUS. The assay is classed as biochemical, uncultured bacterium.
Sequence of (UniProt D5GU71) (D5GU71 1-754): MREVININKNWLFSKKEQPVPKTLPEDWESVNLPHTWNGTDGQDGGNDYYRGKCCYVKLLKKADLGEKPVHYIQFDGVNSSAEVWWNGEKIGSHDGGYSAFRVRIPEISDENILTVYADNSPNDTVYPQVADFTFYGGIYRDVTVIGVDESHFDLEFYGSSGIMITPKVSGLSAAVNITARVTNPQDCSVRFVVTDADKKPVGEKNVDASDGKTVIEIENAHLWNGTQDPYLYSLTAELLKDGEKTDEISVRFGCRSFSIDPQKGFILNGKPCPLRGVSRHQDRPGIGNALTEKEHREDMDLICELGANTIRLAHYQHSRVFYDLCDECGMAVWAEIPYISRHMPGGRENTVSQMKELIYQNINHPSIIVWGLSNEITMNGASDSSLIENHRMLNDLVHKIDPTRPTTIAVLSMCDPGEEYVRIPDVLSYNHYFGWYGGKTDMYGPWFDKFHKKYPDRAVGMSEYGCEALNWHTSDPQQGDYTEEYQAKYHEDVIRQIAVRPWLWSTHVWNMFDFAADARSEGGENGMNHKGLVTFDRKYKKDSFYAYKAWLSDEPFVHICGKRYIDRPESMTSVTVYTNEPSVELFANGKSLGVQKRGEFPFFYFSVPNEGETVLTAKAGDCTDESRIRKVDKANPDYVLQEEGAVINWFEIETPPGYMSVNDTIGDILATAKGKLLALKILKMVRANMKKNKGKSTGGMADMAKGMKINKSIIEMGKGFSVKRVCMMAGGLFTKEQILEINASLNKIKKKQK

As for `c1ccc(Nc2cc3c(cn2)CN(CC2CC2)CCN3)cc1` [NCGC00411059, 4-(cyclopropylmethyl)-N-phenyl-2,3,4,5-tetrahydro-1H-pyrido[4,3-e][1,4]diazepin-8-amine], in assay [1], the efficacy was −72% and the “curve class (CC)” value is on record as −2.2.
In assay [2], `O=C(Nc1cccc(-c2nc3ncccc3o2)c1)c1ccc(-c2cccc(Cl)c2Cl)o1` [NCGC00099510, 5-(2,3-dichlorophenyl)-N-(3-(oxazolo[4,5-b]pyridine-2-yl)phenyl)furan-2-carboxamide] registered an IC50 of 9.6 µM. In assay [1], the efficacy is −70% and the “curve class (CC)” value is given as −1.2.
